In ChEMBL document CHEMBL5724914, “Linking interpersonal differences in gut microbiota composition and drug biotransformation activity” (2024):

Test: (§1) The drug is tested on Z-021 corresponding to metagenome with ENA study accession number: PRJEB37062 and ENA sample accession number: ERS12561820 for biotransformation under anaerobic condition. The drug concentrations were measured over 9 timepoints collected between 0 and 24 hours of incubation by liquid-chromatography-coupled mass spectrometry (LC–MS)
Details: 2 µM
Also: call rule not given here.

Structure (SMILES)	Bacterial Biotransformation
COC(=O)[C@H](c1ccccc1Cl)N1CCc2sccc2C1.O=S(=O)(O)O [CLOPIDOGREL BISULFATE]	Compound metabolized
O=P1(N(CCCl)CCCl)NCCCO1 (stereo not given) [CYCLOPHOSPHAMIDE ANHYDROUS]	Compound NOT metabolized

Details: human gut metagenome, 24 h, 2 µM

Structure (SMILES)	Bacterial Biotransformation
COC(=O)[C@H](c1ccccc1Cl)N1CCc2sccc2C1.O=S(=O)(O)O [CLOPIDOGREL BISULFATE]	Compound metabolized
O=P1(N(CCCl)CCCl)NCCCO1 (stereo not given) [CYCLOPHOSPHAMIDE ANHYDROUS]	Compound NOT metabolized

Details: human gut metagenome, 24 h, 2 µM
Remark: another data set of the same source

Structure (SMILES)	Bacterial Biotransformation
COC(=O)[C@H](c1ccccc1Cl)N1CCc2sccc2C1.O=S(=O)(O)O [CLOPIDOGREL BISULFATE]	Compound metabolized
O=P1(N(CCCl)CCCl)NCCCO1 (stereo not given) [CYCLOPHOSPHAMIDE ANHYDROUS]	Compound NOT metabolized

Test: (§2) The drug is tested on WLS-090 corresponding to human gut metagenome with ENA study accession number: PRJEB37062 and ENA sample accession number: ERS12561753 for biotransformation under anaerobic condition. The drug concentrations were measured over 9 timepoints collected between 0 and 24 hours of incubation by liquid-chromatography-coupled mass spectrometry (LC–MS)
Details: 2 µM

Structure (SMILES)	Bacterial Biotransformation
COC(=O)[C@H](c1ccccc1Cl)N1CCc2sccc2C1.O=S(=O)(O)O [CLOPIDOGREL BISULFATE]	Compound metabolized
O=P1(N(CCCl)CCCl)NCCCO1 (stereo not given) [CYCLOPHOSPHAMIDE ANHYDROUS]	Compound metabolized

Test: as §1, with “Z-005” for “Z-021”, “ERS12561805” for “ERS12561820”
Details: 2 µM

Structure (SMILES)	Bacterial Biotransformation
COC(=O)[C@H](c1ccccc1Cl)N1CCc2sccc2C1.O=S(=O)(O)O [CLOPIDOGREL BISULFATE]	Compound metabolized
O=P1(N(CCCl)CCCl)NCCCO1 (stereo not given) [CYCLOPHOSPHAMIDE ANHYDROUS]	Compound NOT metabolized

Details: human gut metagenome, 24 h, 2 µM
Remark: another data set of the same source

Structure (SMILES)	Bacterial Biotransformation
COC(=O)[C@H](c1ccccc1Cl)N1CCc2sccc2C1.O=S(=O)(O)O [CLOPIDOGREL BISULFATE]	Compound metabolized
O=P1(N(CCCl)CCCl)NCCCO1 (stereo not given) [CYCLOPHOSPHAMIDE ANHYDROUS]	Compound NOT metabolized

Test: as §2, with “WLS-082” for “WLS-090”, “ERS12561751” for “ERS12561753”
Details: 2 µM

Structure (SMILES)	Bacterial Biotransformation
COC(=O)[C@H](c1ccccc1Cl)N1CCc2sccc2C1.O=S(=O)(O)O [CLOPIDOGREL BISULFATE]	Compound metabolized
O=P1(N(CCCl)CCCl)NCCCO1 (stereo not given) [CYCLOPHOSPHAMIDE ANHYDROUS]	Compound metabolized

Test: as §2, with “Z-014” for “WLS-090”, “rat” for “human”, “ERS12561814” for “ERS12561753”
Details: 2 µM

Structure (SMILES)	Bacterial Biotransformation
COC(=O)[C@H](c1ccccc1Cl)N1CCc2sccc2C1.O=S(=O)(O)O [CLOPIDOGREL BISULFATE]	Compound NOT metabolized
O=P1(N(CCCl)CCCl)NCCCO1 (stereo not given) [CYCLOPHOSPHAMIDE ANHYDROUS]	Compound NOT metabolized

Test: as §2, with “WLS-086” for “WLS-090”, “ERS12561752” for “ERS12561753”
Details: 2 µM

Structure (SMILES)	Bacterial Biotransformation
COC(=O)[C@H](c1ccccc1Cl)N1CCc2sccc2C1.O=S(=O)(O)O [CLOPIDOGREL BISULFATE]	Compound metabolized
O=P1(N(CCCl)CCCl)NCCCO1 (stereo not given) [CYCLOPHOSPHAMIDE ANHYDROUS]	Compound metabolized

Details: human gut metagenome, 24 h, 2 µM
Remark: another data set of the same source

Structure (SMILES)	Bacterial Biotransformation
COC(=O)[C@H](c1ccccc1Cl)N1CCc2sccc2C1.O=S(=O)(O)O [CLOPIDOGREL BISULFATE]	Compound metabolized
O=P1(N(CCCl)CCCl)NCCCO1 (stereo not given) [CYCLOPHOSPHAMIDE ANHYDROUS]	Compound metabolized

Test: as §2, with “WLS-039” for “WLS-090”, “ERS12561746” for “ERS12561753”
Details: 2 µM

Structure (SMILES)	Bacterial Biotransformation
COC(=O)[C@H](c1ccccc1Cl)N1CCc2sccc2C1.O=S(=O)(O)O [CLOPIDOGREL BISULFATE]	Compound NOT metabolized
O=P1(N(CCCl)CCCl)NCCCO1 (stereo not given) [CYCLOPHOSPHAMIDE ANHYDROUS]	Compound NOT metabolized

Test: as §1, with “Z-010” for “Z-021”, “ERS12561810” for “ERS12561820”
Details: 2 µM

Structure (SMILES)	Bacterial Biotransformation
COC(=O)[C@H](c1ccccc1Cl)N1CCc2sccc2C1.O=S(=O)(O)O [CLOPIDOGREL BISULFATE]	Compound metabolized
O=P1(N(CCCl)CCCl)NCCCO1 (stereo not given) [CYCLOPHOSPHAMIDE ANHYDROUS]	Compound NOT metabolized

Test: as §2, with “Z-017” for “WLS-090”, “mouse” for “human”, “ERS12561816” for “ERS12561753”
Details: 2 µM

Structure (SMILES)	Bacterial Biotransformation
COC(=O)[C@H](c1ccccc1Cl)N1CCc2sccc2C1.O=S(=O)(O)O [CLOPIDOGREL BISULFATE]	Compound metabolized
O=P1(N(CCCl)CCCl)NCCCO1 (stereo not given) [CYCLOPHOSPHAMIDE ANHYDROUS]	Compound NOT metabolized

Test: as §2, with “Z-019” for “WLS-090”, “rat” for “human”, “ERS12561818” for “ERS12561753”
Details: 2 µM

Structure (SMILES)	Bacterial Biotransformation
COC(=O)[C@H](c1ccccc1Cl)N1CCc2sccc2C1.O=S(=O)(O)O [CLOPIDOGREL BISULFATE]	Compound NOT metabolized
O=P1(N(CCCl)CCCl)NCCCO1 (stereo not given) [CYCLOPHOSPHAMIDE ANHYDROUS]	Compound NOT metabolized

Test: as §2, with “Z-018” for “WLS-090”, “pig” for “human”, “ERS12561817” for “ERS12561753”
Details: 2 µM

Structure (SMILES)	Bacterial Biotransformation
COC(=O)[C@H](c1ccccc1Cl)N1CCc2sccc2C1.O=S(=O)(O)O [CLOPIDOGREL BISULFATE]	Compound metabolized
O=P1(N(CCCl)CCCl)NCCCO1 (stereo not given) [CYCLOPHOSPHAMIDE ANHYDROUS]	Compound NOT metabolized

Details: human gut metagenome, 24 h, 2 µM
Remark: another data set of the same source

Structure (SMILES)	Bacterial Biotransformation
COC(=O)[C@H](c1ccccc1Cl)N1CCc2sccc2C1.O=S(=O)(O)O [CLOPIDOGREL BISULFATE]	Compound metabolized
O=P1(N(CCCl)CCCl)NCCCO1 (stereo not given) [CYCLOPHOSPHAMIDE ANHYDROUS]	Compound NOT metabolized

Test: as §2, with “WLS-170” for “WLS-090”, “ERS12561762” for “ERS12561753”
Details: 2 µM

Structure (SMILES)	Bacterial Biotransformation
COC(=O)[C@H](c1ccccc1Cl)N1CCc2sccc2C1.O=S(=O)(O)O [CLOPIDOGREL BISULFATE]	Compound metabolized
O=P1(N(CCCl)CCCl)NCCCO1 (stereo not given) [CYCLOPHOSPHAMIDE ANHYDROUS]	Compound metabolized

Test: as §2, with “Z-001” for “WLS-090”, “mouse” for “human”, “ERS12561801” for “ERS12561753”
Details: 2 µM

Structure (SMILES)	Bacterial Biotransformation
COC(=O)[C@H](c1ccccc1Cl)N1CCc2sccc2C1.O=S(=O)(O)O [CLOPIDOGREL BISULFATE]	Compound metabolized
O=P1(N(CCCl)CCCl)NCCCO1 (stereo not given) [CYCLOPHOSPHAMIDE ANHYDROUS]	Compound NOT metabolized

Test: as §2, with “WLS-027” for “WLS-090”, “ERS12561744” for “ERS12561753”
Details: 2 µM

Structure (SMILES)	Bacterial Biotransformation
COC(=O)[C@H](c1ccccc1Cl)N1CCc2sccc2C1.O=S(=O)(O)O [CLOPIDOGREL BISULFATE]	Compound NOT metabolized
O=P1(N(CCCl)CCCl)NCCCO1 (stereo not given) [CYCLOPHOSPHAMIDE ANHYDROUS]	Compound NOT metabolized

Details: human gut metagenome, 24 h, 2 µM
Remark: another data set of the same source

Structure (SMILES)	Bacterial Biotransformation
COC(=O)[C@H](c1ccccc1Cl)N1CCc2sccc2C1.O=S(=O)(O)O [CLOPIDOGREL BISULFATE]	Compound metabolized
O=P1(N(CCCl)CCCl)NCCCO1 (stereo not given) [CYCLOPHOSPHAMIDE ANHYDROUS]	Compound metabolized
